# Measured values published in US20130317037A1, “METHOD OF ADMINISTRATION AND TREATMENT” (GlaxoSmithKline Intellectual Property Development Limited, priority 2010, published 2013).
# Read-outs that look alike come from different tables or passages of the source.
# Key:
# [1] = system: panel of 15 human breast cell lines; experiment: Breast Cancer Cell Line Panel A proliferation assay, panel summary; type: cell-based
# Description: A total of 15 breast cancer cell lines were used in this study. These cells were cultured in RPMI-1640 and supplemented with 5% or 10% fetal bovine serum, 2 mM GlutaMAX™ and 1 mM sodium pyruvate, or in growth medium recommended by the suppliers [American Type Culture Collection, Manassas, Va., USA; Developmental Therapeutics Program, National Cancer Institute, Bethesda, Md., USA; German Collection of Microorganisms and Cell Cultures (DSMZ), Braunschweig, Germany; European Collection of Cell Cultures (ECACC), Porton Down, UK]. Cells of each line were seeded into a 384-well microtiter plate at two cell densities. Low density ranges were 300-1800 cells/well, and a high density was 600 to 3600 cells/well). The plating density was determined by the rate of proliferation of the cell line in the absence of any inhibitor and varied amongst cell lines. High plating densities were double that of low density. Each cell density was plated in triplicate. In total there were 30 wells to be treated with increasing concentrations of Compound B for each cell line at each density. In addition, there were 24 wells of dimethyl sulfoxide (DMSO)-treated controls at each density. After seeding, the cells were incubated at 37° C. in 5% CO2 for 24 hours. Subsequently, Compound B was added to each cell line with 10 concentrations. […] Also, a zero-time plate prepared with a similar cell seeding was read for each cell line at each seeding density immediately after the addition of the DMSO control. […] After the contents were mixed to induce cell lysis and stabilization, cell luminescence was recorded using a SpectraMax M5^e (Molecular Devices, Sunnyvale, Calif., USA)
# The luminescence of Compound B treated cells was compared relative to the average of the 24 DMSO-treated control wells at each cell density for every concentration of Compound B for all triplicate wells. […] Finally, where data quality permits, the Ymin values (defined as the maximum growth inhibition relative to the cell density at Time-zero) were calculated as a measure of cytotoxicity where data were of reasonable quality.
# KPL-1 = experiment: Panel A proliferation assay (CellTiter-Glo); HER2 2 copies, KRAS WT, PIK3CA p.E545K; type: cell-based, human; conditions: for IC50: Homo sapiens
# Description: A total of 15 breast cancer cell lines were used in this study. […] Cells of each line were seeded into a 384-well microtiter plate at two cell densities. Low density ranges were 300-1800 cells/well, and a high density was 600 to 3600 cells/well). The plating density was determined by the rate of proliferation of the cell line in the absence of any inhibitor and varied amongst cell lines. High plating densities were double that of low density. Each cell density was plated in triplicate. […] In addition, there were 24 wells of dimethyl sulfoxide (DMSO)-treated controls at each density. After seeding, the cells were incubated at 37° C. in 5% CO2 for 24 hours. […] After a 72 h incubation, an equal volume of the CellTiter-Glo (CellTiter-Glo Luminescent Cell Viability Assay, Promega, Madison, Wis.) to that of the cell culture medium was added into each well of the plate. After the contents were mixed to induce cell lysis and stabilization, cell luminescence was recorded using a SpectraMax M5^e (Molecular Devices, Sunnyvale, Calif., USA)
# Specifically, the midpoint of the growth window (the gIC50) falls half way between the number of cells at the time of compound addition (T=0) and the growth of control cells treated with DMSO. The gIC50 value serves as a metric for measuring the inhibition of proliferation in cancer cells. The curves for each seeding density for each cell line were manually inspected for both data quality and appropriateness of curve fitting. Where the starting data were poor the curve and subsequent gIC50s were excluded from further analysis. Cell line seedings were considered of poor quality when the r^2 value of the fitted curve was <0.75. Finally, where data quality permits, the Ymin values (defined as the maximum growth inhibition relative to the cell density at Time-zero) were calculated as a measure of cytotoxicity where data were of reasonable quality.
# HCC1954 = experiment: Panel A proliferation assay (CellTiter-Glo); HER2 Gain ≧5, KRAS WT, PIK3CA p.H1047R; type: cell-based, human; conditions: for IC50: Homo sapiens
# Description: (§1) A total of 15 breast cancer cell lines were used in this study. These cells were cultured in RPMI-1640 and supplemented with 5% or 10% fetal bovine serum, 2 mM GlutaMAX™ and 1 mM sodium pyruvate, or in growth medium recommended by the suppliers [American Type Culture Collection, Manassas, Va., USA; Developmental Therapeutics Program, National Cancer Institute, Bethesda, Md., USA; German Collection of Microorganisms and Cell Cultures (DSMZ), Braunschweig, Germany; European Collection of Cell Cultures (ECACC), Porton Down, UK]. Cells of each line were seeded into a 384-well microtiter plate at two cell densities. Low density ranges were 300-1800 cells/well, and a high density was 600 to 3600 cells/well). The plating density was determined by the rate of proliferation of the cell line in the absence of any inhibitor and varied amongst cell lines. High plating densities were double that of low density. Each cell density was plated in triplicate. In total there were 30 wells to be treated with increasing concentrations of Compound B for each cell line at each density. In addition, there were 24 wells of dimethyl sulfoxide (DMSO)-treated controls at each density. After seeding, the cells were incubated at 37° C. in 5% CO2 for 24 hours. Subsequently, Compound B was added to each cell line with 10 concentrations. The dosing solution of Compound B was first prepared in DMSO at a master stock concentration of 10 mM. […] were then made of the stock solution to give a range of working stock concentrations; 10.00 mM, 3.164 mM, 1.001 mM, 316.9 μM, 100.3 μM, 31.74 μM, 10.04 μM, 3.178 μM, 1.006 μM and 318.3 nM. The working stock concentrations of Compound B were then dispensed into the seeded cancer cell lines using a Biomek FX liquid handler to give final treatment concentrations of 0.1% of the stock concentration. A similar volume of DMSO without Compound B was dispensed into the 24 control wells of each seeding density at a concentration of 0.1%. Also, a zero-time plate prepared with a similar cell seeding was read for each cell line at each seeding density immediately after the addition of the DMSO control. After a 72 h incubation, an equal volume of the CellTiter-Glo (CellTiter-Glo Luminescent Cell Viability Assay, Promega, Madison, Wis.) to that of the cell culture medium was added into each well of the plate. After the contents were mixed to induce cell lysis and stabilization, cell luminescence was recorded using a SpectraMax M5^e (Molecular Devices, Sunnyvale, Calif., USA)
# The luminescence of Compound B treated cells was compared relative to the average of the 24 DMSO-treated control wells at each cell density for every concentration of Compound B for all triplicate wells. The percent intensity values were used in model 205 of XLfit in Microsoft Excel to calculate gIC50s for the low and high seeding density (a 4 parameter logistical fit). Specifically, the midpoint of the growth window (the gIC50) falls half way between the number of cells at the time of compound addition (T=0) and the growth of control cells treated with DMSO. The gIC50 value serves as a metric for measuring the inhibition of proliferation in cancer cells. […] Finally, where data quality permits, the Ymin values (defined as the maximum growth inhibition relative to the cell density at Time-zero) were calculated as a measure of cytotoxicity where data were of reasonable quality.
# MDA-MB-175-VII = experiment: Panel A proliferation assay (CellTiter-Glo); HER2 2 copies, KRAS WT, PIK3CA WT; type: cell-based, human; conditions: for IC50: Homo sapiens
# Description: as §1
# (§2) The luminescence of Compound B treated cells was compared relative to the average of the 24 DMSO-treated control wells at each cell density for every concentration of Compound B for all triplicate wells. The percent intensity values were used in model 205 of XLfit in Microsoft Excel to calculate gIC50s for the low and high seeding density (a 4 parameter logistical fit). Specifically, the midpoint of the growth window (the gIC50) falls half way between the number of cells at the time of compound addition (T=0) and the growth of control cells treated with DMSO. The gIC50 value serves as a metric for measuring the inhibition of proliferation in cancer cells. The curves for each seeding density for each cell line were manually inspected for both data quality and appropriateness of curve fitting. Where the starting data were poor the curve and subsequent gIC50s were excluded from further analysis. Cell line seedings were considered of poor quality when the r^2 value of the fitted curve was <0.75. Finally, where data quality permits, the Ymin values (defined as the maximum growth inhibition relative to the cell density at Time-zero) were calculated as a measure of cytotoxicity where data were of reasonable quality.
# ZR-75-1 = experiment: as above; type: cell-based, human; conditions: for IC50: Homo sapiens
# Description: as §1, §2
structure (smiles),measurement,setting,value
"COc1ncc(-c2ccc3nccc(-c4ccnnc4)c3c2)cc1NS(=O)(=O)c1ccc(F)cc1F [Compound B, 2,4-difluoro-N-{2-(methyloxy)-5-[4-(4-pyridazinyl)-6-quinolinyl]-3-pyridinyl}benzenesulfonamide]",IC50,"[1]; 15 human breast cell lines, read-out: overall median gIC50",3.2 nM
same,tumor cell lines with gIC50>20 nM,[1]; number of lines / lines tested,3/15
same,tumor cell lines with gIC50s<3 nM,[1]; number of lines / lines tested,7/15
same,IC50,"KPL-1; KPL-1, high seeding density, 72 h, read-out: High Density gIC50",2.7 nM
same,IC50,"KPL-1; KPL-1, low seeding density, 72 h, read-out: Low Density gIC50",2 nM
same,IC50,"KPL-1; KPL-1, mean of low and high density, read-out: Mean gIC50",2.35 nM
same,High Density Y-Min,"KPL-1; KPL-1, high density, % of cells at T = 0",130.2%
same,Low Density Y-Min,"KPL-1; KPL-1, low density, % of cells at T = 0",126.6%
same,High Density Y-Min,"HCC1954; HCC1954, high density, % of cells at T = 0",18.3%
same,Low Density Y-Min,"HCC1954; HCC1954, low density, % of cells at T = 0",19.8%
same,IC50,"HCC1954; HCC1954, high seeding density, 72 h, read-out: High Density gIC50",3.4 nM
same,IC50,"HCC1954; HCC1954, low seeding density, 72 h, read-out: Low Density gIC50",3 nM
same,IC50,"HCC1954; HCC1954, mean of low and high density, read-out: Mean gIC50",3.2 nM
same,IC50,"MDA-MB-175-VII; high seeding density, 72 h, read-out: High Density gIC50",1.1 nM
same,IC50,"MDA-MB-175-VII; low seeding density, 72 h, read-out: Low Density gIC50",1.7 nM
same,IC50,"MDA-MB-175-VII; mean of low and high density, read-out: Mean gIC50",1.4 nM
same,High Density Y-Min,"MDA-MB-175-VII; high density, % of cells at T = 0",12.2%
same,Low Density Y-Min,"MDA-MB-175-VII; low density, % of cells at T = 0",19.8%
same,IC50,"ZR-75-1; ZR-75-1, high seeding density, 72 h, read-out: High Density gIC50",0.9 nM
same,IC50,"ZR-75-1; ZR-75-1, low seeding density, 72 h, read-out: Low Density gIC50",0.8 nM
same,IC50,"ZR-75-1; ZR-75-1, mean of low and high density, read-out: Mean gIC50",0.85 nM
same,High Density Y-Min,"ZR-75-1; ZR-75-1, high density, % of cells at T = 0",22.1%
same,Low Density Y-Min,"ZR-75-1; ZR-75-1, low density, % of cells at T = 0",19.8%
